The source of these data is patent EP4005558A1, “ANTICANCER AGENT AND METHOD FOR PREPARATION OF POROUS SILICA PARTICLE” (Lemonex Inc., priority 2019, dated 2022).

The test system of test [1] is MCF-7 cells expressing LC3-GFP. The experiment in a line: Number of GFP-LC3 puncta (autophagy induction). Format: cell-based. The following applies: MCF-7 expressing LC3-GFP, treated 6 hours in serum-free medium. The procedure:
Using lipofectamine 2000, LC3-GFP plasmid was transfected into MCF-7 cells. Transfected MCF-7 was selected with 800 µg/mL of G418 for 3 months. […] 100,000 MCF-7 cells expressing LC3-GFP were seeded.
40 µg of dye-labeled particles and 4 µg of bec1 peptide were mixed, and the cells were treated for 6 hours in a serum-free medium. Cells were fixed with 4% PFA, and nuclei were stained with DAPI. Images were obtained with a Delta-vision microscope, and the number of GFP-LC3 puncta was measured in 100 cells for each group.
LC3 protein is a biomarker involved in the elongation process of autophagosome, and its expression level is known to increase with the progress of autophagosome.

In the next test the test system is MCF-7 cells. Briefly: Cytotoxicity, MTT assay. Format: cell-based. The settings on record: treatment for 1 day, compared to the non-treated group. The procedure: MCF-7 cells were seeded at 10,000 cells/well in 96-well cell culture plates. After 1 day, different concentrations of each particle (4 to 500 µg/mL) were treated with a serum-containing medium in each well for 1 day. Thereafter, the culture was performed for 4 hours while replacing the above medium with a serum-free medium containing 10 µl of MTT assay kit, and the supernatant was aspirated. DMSO was added to each well to dissolve formazan, and reacted for 1 hour. The absorbance was measured at a wavelength of 570 nm, and the cell viability was calculated as a relative value to that of the untreated group.
Cell viability was compared by MTT assay after treatment with FabBALL and Becl peptide carrying Becl peptide on MCF-7 cells.
(Formazan colour is commonly taken as a measure of viable cells.)

Take CGGTNVFNATFHIWHSGQFGT [Becl peptide]: in test [1], the GFP puncta entry is “very little amount”. Besides, in the test with MCF-7 cells, the cell viability result is listed as “not significantly varied”.
